Assay results as given in publication PMC4241021 (Nature communications, 2014).

How the values were obtained:
Settings in all cases: labelled compound; 5 mM MgCl2, 50 mM KCl, Tris-HCl pH 8.0, 37 °C
ICE1056Fin = ICE1056Fin (Haemophilus influenzae, UniProt A0A8I2XW01)
P1 ParB = P1 ParB (Punavirus P1, UniProt Q38420)
RK2 KorB = RK2 KorB (Escherichia coli, UniProt P07674)
RK2 KorB, sequence (P07674 whole entry): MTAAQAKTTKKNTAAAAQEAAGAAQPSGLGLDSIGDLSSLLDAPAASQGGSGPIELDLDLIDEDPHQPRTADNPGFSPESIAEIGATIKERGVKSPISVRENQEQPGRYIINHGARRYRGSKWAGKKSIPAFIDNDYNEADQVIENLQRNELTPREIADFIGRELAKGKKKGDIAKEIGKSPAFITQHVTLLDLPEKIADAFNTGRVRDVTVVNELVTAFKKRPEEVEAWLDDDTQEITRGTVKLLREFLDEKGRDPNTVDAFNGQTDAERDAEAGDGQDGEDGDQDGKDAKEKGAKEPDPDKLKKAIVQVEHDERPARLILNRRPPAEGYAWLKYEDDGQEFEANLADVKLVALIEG

ICE1056Fin, sequence (A0A8I2XW01 1-185): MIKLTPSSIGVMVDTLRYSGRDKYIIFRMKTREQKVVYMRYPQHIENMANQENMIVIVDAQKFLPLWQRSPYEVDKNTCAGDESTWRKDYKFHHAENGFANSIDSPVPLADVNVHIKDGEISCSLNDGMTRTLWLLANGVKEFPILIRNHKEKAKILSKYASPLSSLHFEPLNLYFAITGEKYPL
P1 ParB, sequence (Q38420 1-333): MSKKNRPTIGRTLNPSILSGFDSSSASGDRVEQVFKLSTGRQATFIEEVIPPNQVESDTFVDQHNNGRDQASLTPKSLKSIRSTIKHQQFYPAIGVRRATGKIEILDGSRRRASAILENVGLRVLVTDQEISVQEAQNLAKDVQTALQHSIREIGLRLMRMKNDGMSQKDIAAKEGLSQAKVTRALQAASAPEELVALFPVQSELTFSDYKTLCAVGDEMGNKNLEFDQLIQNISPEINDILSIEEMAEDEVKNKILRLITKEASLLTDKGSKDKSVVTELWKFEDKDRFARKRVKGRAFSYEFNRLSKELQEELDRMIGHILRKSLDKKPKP

## Nc1ncnc2c1ncn2[C@@H]1O[C@H](COP(=O)(O)OP(=O)(O)OP(=O)(O)O)[C@@H](O)[C@H]1O [ATP]
ICE1056Fin
  TLC ATPase assay, γ-phosphate release: ICE1056Fin, P1 ParB and RK2 KorB also exhibited comparable ATPase activity
P1 ParB
  TLC ATPase assay, γ-phosphate release: ICE1056Fin, P1 ParB and RK2 KorB also exhibited comparable ATPase activity
RK2 KorB
  TLC ATPase assay, γ-phosphate release: ICE1056Fin, P1 ParB and RK2 KorB also exhibited comparable ATPase activity
